The test system of data set [1] is mouse apolipoprotein B mRNA. The data set can be described thus: High fat fed mice (Example 65): mouse apolipoprotein B mRNA and serum cholesterol levels. The data set is classed as in vivo. How it is done:
Male C57Bl/6 mice were divided into the following groups, consisting of 5 animals each: (1) mice on a lean diet, injected with saline (lean control); (2) mice on a high fat diet; (3) mice on a high fat diet injected with 50 mg/kg of the control oligonucleotide 141923 (SEQ ID NO: 858); (4) mice on a high fat diet given 20 mg/kg atorvastatin calcium (Lipitor®, Pfizer Inc.); (5) mice on a high fat diet injected with 10, 25 or 50 mg/kg ISIS 147764 (SEQ ID NO: 109). Saline and oligonucleotide treatments were administered intraperitoneally twice weekly for 6 weeks. Atorvastatin was administered daily for 6 weeks. At study termination, liver samples were isolated from each animal and RNA was isolated for Northern blot qualitative assessment, DNA microarray and quantitative real-time PCR. Northern blot assessment and quantitative real-time PCR were performed as described by other examples herein.
Mouse apolipoprotein B mRNA and serum cholesterol levels, measured as described herein, were evaluated to confirm antisense inhibition by ISIS 147764 and ISIS 147483. […] The 50 mg/kg dose of ISIS 147483 increased ALT and AST levels.

The nature of data set [2]: Lean vs high fat fed C57BL/6 mice (Example 20): cholesterol, lipoprotein, triglyceride, liver enzyme and serum glucose levels. The data set is classed as in vivo, mouse. The conditions noted are these: 50 mg/kg i.p. every three days, six weeks. How it is done:
Male C57BL/6 mice were divided into two matched groups; (1) wild-type control animals (lean animals) and (2) animals receiving a high fat diet (60% kcal fat). Control animals received saline treatment and were maintained on a normal rodent diet. After overnight fasting, mice from each group were dosed intraperitoneally every three days with saline or 50 mg/kg ISIS 147764 (SEQ ID No: 109) for six weeks. At study termination and forty eight hours after the final injections, animals were sacrificed and evaluated for target mRNA levels in liver, cholesterol and triglyceride levels, liver enzyme levels and serum glucose levels.

The next data set has as its system apolipoprotein B mRNA. Nature of the data set: Long-term study in lean Cynomolgous monkeys (Example 64): apolipoprotein B mRNA in liver. Type of data set: in vivo, Cynomolgous monkey. The conditions noted are these: for apolipoprotein B expression % change normalized to saline: liver, one month. How it is done: Male and female Cynomologous monkeys are treated with 2, 4 or 12 mg/kg of ISIS 301012 intravenously or 2 or 20 mg/kg subcutaneously at a frequency of every two days for the first week, and every 4 days thereafter, for 1 and 3 month treatment periods. Saline-treated animals serve as controls. Each treatment group includes 2 to 3 animals of each sex.
At a one month interval and at the 3 month study termination, the animals are sacrificed and evaluated for target expression in liver, lipid levels in serum and indicators of toxicity. Liver samples are procured, RNA is isolated and apolipoprotein B mRNA expression is measured by real-time PCR as described in other examples herein. Serum lipids, including total cholesterol, LDL-cholesterol, HDL-cholesterol and triglycerides, are evaluated by routine clinical analysis using an Olympus Clinical Analyzer (Olympus America Inc., Melville, N.Y.). Ratios of LDL-cholesterol to HDL-cholesterol and total cholesterol to HDL-cholesterol are also calculated. Analyses of serum ALT and AST, inflammatory infiltrates in tissue and basophilic granules in tissue provide an assessment of toxicities related to the treatment. Hepatic steatosis, or accumulation of lipids in the liver, is assessed by routine histological analysis with oil red 0 stain and measurement of liver tissue triglycerides using a Triglyceride GPO Assay (Sigma-Aldrich, St. Louis, Mo.).
The results from the one month interval of the long term treatment are shown in Table 50 and are normalized to saline-treated animals for mRNA and to untreated baseline values for lipid levels. Total cholesterol, LDL-cholesterol, HDL-cholesterol, LDL particle concentration and triglyceride levels in serum were measured by nuclear magnetic resonance spectroscopy by Liposcience (Raleigh, N.C.). Additionally, the concentration of intact oligonucleotide in liver was measured by capillary gel electrophoresis and is presented as micrograms of oligonucleotide per gram of liver tissue. Each result represents the average of data from 4 animals (2 males and 2 females).
In a similar experiment, male and female Cynomolgous monkeys received an intravenous dose of ISIS 301012 at 4 mg/kg, every two days for the first week and every 4 days thereafter. Groups of animals were sacrificed after the first dose and the fourth dose, as well as 11, 15 and 23 days following the fourth and final dose. Liver RNA was isolated and apolipoprotein B mRNA levels were evaluated by real-time PCR as described herein. […] Furthermore, after 4 doses of ISIS 301012 at 4 mg/kg, target mRNA was reduced by approximately 85% and a 50% reduction in target mRNA was sustained for up to 16 days following the cessation of antisense oligonucleotide treatment.

Data set [3] deals with mouse apolipoprotein B mRNA. The data set can be described thus: Transgenic mice dosing study (Example 52): mouse apolipoprotein B mRNA in liver. The data set is classed as in vivo. The conditions noted are these: for % Inhibition, mouse apolipoprotein B mRNA: liver, 12 weeks. How it is done: A long-term study of inhibition of human apolipoprotein B by ISIS 301012 in C57BL/6NTac-TgN(APOB100) mice (Taconic, Germantown, N.Y.) was conducted for a 3 month period. Mice were dosed intraperitoneally twice a week with 10 or 25 mg/kg ISIS 301012 (SEQ ID No: 247) for 12 weeks. Saline-injected animals served as controls. Each treatment group comprised 4 animals.
The study was terminated forty eight hours after the final injections in the eighth week of treatment, when animals were sacrificed and evaluated for target mRNA levels in liver, apolipoprotein B protein levels in liver and serum cholesterol and liver enzyme levels. In addition, the expression of endogenous mouse apolipoprotein B levels in liver was measured to evaluate any effects of ISIS 301012 on mouse apolipoprotein B mRNA expression.
Human and mouse apolipoprotein B mRNA levels in livers of animals treated for 12 weeks were measured by real-time PCR as described herein. Each result represents the average of data from 4 animals.

The mark [4] stands for this setting: Lean-control group, C57BL/6 mice.

Two substances from patent publication US7803930B2, “Antisense modulation of apolipoprotein B-expression” (Isis Pharmaceuticals, Inc., priority 2002, dated 2010) can be followed below.

For the substance “GTCCCTGAAGATGTCAATGC (2'-MOE gapmer, further chemistry not given here) [ISIS 147764]”, the “mouse apolipoprotein B mRNA and serum cholesterol levels” value in data set [1] is “lowered in a dose-dependent manner”. Besides, in data set [2] (High Fat Group, C57BL/6 mice), the “Percent Change CHOL” value is −67%, the “Percent Change GLUC” value is −28%, the “Percent Change Lipoproteins HDL” value is listed as −65% and the “Percent Change Lipoproteins LDL” value is listed as −87%. Moreover, in data set [2] (setting [4]), the “Percent Change CHOL” value is −63%, the “Percent Change Lipoproteins HDL” value is given as −44%, the “Percent Change Lipoproteins LDL” value was −64% and the “Percent Change TRIG” value is reported as −34%. In data set [2] (lean and high fat C57BL/6 mice), the “changes in liver enzyme levels” value is “No significant changes”.
As for “ISIS 301012: SEQ ID NO: 247, antisense oligonucleotide targeted to human apolipoprotein B (antisense GCCTCAGTCTGCTTCGCACC; chemistry not given here)”, the “reduction in target mRNA in liver” value in the data set on apolipoprotein B mRNA (Cynomolgous monkeys, after 4 doses at 4 mg/kg i.v.) is recorded as “approximately 85%”. Besides, in the data set on apolipoprotein B mRNA (Cynomolgous monkeys, single intravenous dose of 4 mg/kg), the “reduction in apolipoprotein B mRNA expression in liver” value is reported as 40%. Also, in the data set on apolipoprotein B mRNA (Cynomolgous monkeys, up to 16 days following cessation of treatment (4 doses, 4 mg/kg)), the “reduction in target mRNA in liver sustained after cessation” value was determined as 50%. The “apolipoprotein B expression” value in the data set with apolipoprotein B mRNA (lean Cynomolgous monkeys, one month interval) is on record as “inhibits apolipoprotein B expression in a dose-dependent manner”. Besides, the “apolipoprotein B expression % change normalized to saline” value in the data set with apolipoprotein B mRNA (lean Cynomolgous monkeys, intravenous 2 mg/kg) is reported as −45%; with apolipoprotein B mRNA (lean Cynomolgous monkeys, intravenous 4 mg/kg) it was −76%; with apolipoprotein B mRNA (lean Cynomolgous monkeys, intravenous 12 mg/kg) it was −96%; in the data set with apolipoprotein B mRNA (lean Cynomolgous monkeys, subcutaneous 20 mg/kg), −94%. Moreover, the “mouse liver apolipoprotein B mRNA” value in data set [3] (12 weeks of treatment) is given as “unaffected”. Further, the “% Inhibition, mouse apolipoprotein B mRNA” value in data set [3] (10 mg/kg i.p. twice a week) and in data set [3] (25 mg/kg i.p. twice a week) was 6% in each case.
